System: PDC 899932-113-R3-J6 complex spheroid viability
Assay: Anticancer human tumor 899932-113-R3-J6-PDC patient-derived melanoma cell line growth inhibition [RAS]
Details: for IC50: curve of first compound; for viability, T/C: stronger effect = lower value
Source text: RAS pathway inhibitors in Combinations in Complex Spheroids
A high-throughput screen of multi-cell type tumor spheroids was designed to identify active combinations of RAS pathway inhibitors and targeted small molecules. Complex spheroids include a stromal component modeled by human endothelial cells (HUVEC) and fibroblasts modeled by human mesenchymal stem cells (MSCs). The concentration ranges selected for each drug and investigational agent were based upon clinically achievable concentrations if the clinical Cmax of the agent was known.
Compounds. The drugs and investigational agents: abemaciclib (NSC768073), cobimetinib (NSC768068), divarasib (GDC6063, NSC841802), docetaxel (NSC628503), GDC-1971 (RLY-1971, NSC841576), gemcitabine (NSC613327), inavolisib (NSC800729), ipatasertib (NSC767898), KB-0742 (NSC834161), MRTX-1133 (NSC836407), osimertinib (NSC779217), RMC-4630 (NSC839698), RMC-6236 (NSC851965), RMC-6291 (NSC852671), Ro-3306 (NSC812927), sapanisertib (NSC764658), SN-38 (NSC673596), staurosporine (NSC755774), SY5609 (NSC837396), and tovorafenib (DAY101, NSC766906), were obtained from the National Cancer Institute (NCI) Developmental Therapeutics Program Chemical Repository. The FDA-approved anticancer drug set is available from the NCI Developmental Therapeutics Program. […] The stock solutions were prepared in dimethyl sulfoxide (DMSO, Sigma-Aldrich, St. Louis, MO, cat. D2650) at 800-fold the tested concentration and stored at -70 degrees C prior to their use. All drugs and investigational agents were tested over a range starting from a high concentration at or near the clinical Cmax and decreasing in half-log increments. If the clinical Cmax for an agent had not been determined, the highest concentration tested was 10 microM.
Cell Culture. All cells were maintained in an incubator at 37 degrees C and 5% CO2 with 95% humidity. The PDC lines were cultured according to standard operating procedures established by the NCI PDMR. All PDCs were thawed and cultured in Matrigel-coated flasks prepared with a working solution of 1X Ham's F-12 nutrient mix, without supplementation (Invitrogen, Waltham, MA, cat. 11765054), 100 U/mL penicillin-streptomycin (Invitrogen, cat. 15140122), and 2.5% Matrigel (Corning Inc., Corning, NY, cat. 354248) for the first three passages. The 362531-283-R-J2-PDC and 782815-120-R-J1-PDC lines were cultured in 6C/Colon 1B media, which includes advanced DMEM/F-12 (Thermo Fisher Scientific, cat. 12634028), 10 mM HEPES (Thermo Fisher Scientific, cat. 15630080), 1X GlutaMAX supplement (Thermo Fisher Scientific, cat. 35050061), 0.1 mg/mL primocin (InvivoGen, San Diego, CA, cat. ant-pm-2), 10% defined fetal bovine serum, heat inactivated (HyClone Laboratories Inc., Logan, UT, cat. SH30070.03HI), 50% L-WRN conditioned media (ATCC, cat. CRL-3276), 1.25 mM N-Acetyl-L-cysteine (Sigma-Aldrich, cat. A9165), 10 mM nicotinamide (Sigma-Aldrich, cat. N0636), 1X B-27 supplement (Thermo Fisher Scientific, cat. 17504044), 1X N-2 supplement (Thermo Fisher Scientific, cat. 17502048), 50 ng/mL human EGF (Thermo Fisher Scientific, cat. PHG0311), and 10 microM Y-27632 dihydrochloride (Tocris Bioscience, cat. 1254). The K12877-001-R-J1-PDC line was cultured in 6I media, which includes all 6C/Colon 1B media plus 10 ng/mL human FGF-10 (PeproTech, cat. 100-26), 1 ng/mL human FGF-2 (PeproTech, cat. 100-18B), 1 µM prostaglandin E2 (Tocris Bioscience, cat. 2296), […] hydrocortisone (Sigma-Aldrich, cat. H4001), and […] bovine insulin (Sigma-Aldrich, cat. I6634). The K86415-001-R-J1-PDC line was cultured in 6D media, which includes all 6C/Colon 1B media components minus the L-WRN conditioned media. The 485176-168-R4-J1-PDC was cultured in PANC media, which includes all 6C/Colon 1B media plus 100 ng/mL human FGF-10 (PeproTech, cat. 100-26), 500 nM SB-431542 (Selleckchem, cat. S1067), and 10 nM gastrin (Tocris Bioscience, cat. 3006). […]
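Wherever viability, T/C is given: spheroids exposed to agents for seven days before readout; 100% = DMSO vehicle control wells.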

Question: What does the source list for `CC(=O)OC12COC1CC(O)C1(C)C(=O)C(O)C3=C(C)C(OC(=O)C(O)C(NC(=O)OC(C)(C)C)c4ccccc4)CC(O)(C(OC(=O)c4ccccc4)C21)C3(C)C` (configuration not stated) + C#Cc1c(F)ccc2cc(O)cc(-c3ncc4c(N5CC6CCC(C5)N6)nc(OCC56CCCN5CC(F)C6)nc4c3F)c12?
Answer: IC50 (second compound 0.0316 µM): < 31.6 nM; IC50 (second compound 0.1 µM): < 31.6 nM; IC50 (second compound 0.316 µM): < 31.6 nM; IC50 (second compound 1 µM): < 31.6 nM; IC50 (second compound 3.16 µM): < 31.6 nM; IC50 (second compound 10 µM): < 31.6 nM; viability, T/C (second compound 0.0316 µM, first compound 0.0316 µM): 33.1%; viability, T/C (second compound 0.0316 µM, first compound 0.1 µM): 32.1%; viability, T/C (second compound 0.0316 µM, first compound 0.316 µM): 39.9%; viability, T/C (second compound 0.0316 µM, first compound 1 µM): 48.3%; viability, T/C (second compound 0.0316 µM, first compound 3.16 µM): 67.1%; viability, T/C (second compound 0.0316 µM, first compound 10 µM): 67.7%; viability, T/C (second compound 0.1 µM, first compound 0.0316 µM): 31.8%; viability, T/C (second compound 0.1 µM, first compound 0.1 µM): 31.7%; viability, T/C (second compound 0.1 µM, first compound 0.316 µM): 36.1%; viability, T/C (second compound 0.1 µM, first compound 1 µM): 49.5%; viability, T/C (second compound 0.1 µM, first compound 3.16 µM): 74.5%; viability, T/C (second compound 0.1 µM, first compound 10 µM): 81.8%; viability, T/C (second compound 0.316 µM, first compound 0.0316 µM): 32.3%; viability, T/C (second compound 0.316 µM, first compound 0.1 µM): 30.5%; viability, T/C (second compound 0.316 µM, first compound 0.316 µM): 38.8%; viability, T/C (second compound 0.316 µM, first compound 1 µM): 53.4%; viability, T/C (second compound 0.316 µM, first compound 3.16 µM): 67.4%; viability, T/C (second compound 0.316 µM, first compound 10 µM): 82.8%; viability, T/C (second compound 1 µM, first compound 0.0316 µM): 30.7%; viability, T/C (second compound 1 µM, first compound 0.1 µM): 35%; viability, T/C (second compound 1 µM, first compound 0.316 µM): 41.3%; viability, T/C (second compound 1 µM, first compound 1 µM): 45.5%; viability, T/C (second compound 1 µM, first compound 3.16 µM): 75.1%; viability, T/C (second compound 1 µM, first compound 10 µM): 78.9%; viability, T/C (second compound 3.16 µM, first compound 0.0316 µM): 32.1%; viability, T/C (second compound 3.16 µM, first compound 0.1 µM): 34.4%; viability, T/C (second compound 3.16 µM, first compound 0.316 µM): 37.5%; viability, T/C (second compound 3.16 µM, first compound 1 µM): 49.6%; viability, T/C (second compound 3.16 µM, first compound 3.16 µM): 63.2%; viability, T/C (second compound 3.16 µM, first compound 10 µM): 73.9%; viability, T/C (second compound 10 µM, first compound 0.0316 µM): 35.3%; viability, T/C (second compound 10 µM, first compound 0.1 µM): 28.9%; viability, T/C (second compound 10 µM, first compound 0.316 µM): 36.4%; viability, T/C (second compound 10 µM, first compound 1 µM): 46.5%; viability, T/C (second compound 10 µM, first compound 3.16 µM): 66.4%; viability, T/C (second compound 10 µM, first compound 10 µM): 69.7%

From PubChem BioAssay AID2060895 (Molecular Pharmacology Branch, DTP, NCI, 2025)
